Here are results for 15 molecules from PubChem BioAssay AID248 (DTP/NCI, 2004).

This assay relates to L1210 leukemia ip in BDF1 mice, survival T/C. Put plainly: NCI In Vivo Anticancer Drug Screen. Data for tumor model L1210 Leukemia (intraperitoneal) in B6D2F1 (BDF1) mice. Conditions: endpoint: mean survival time, higher = longer survival. The method in brief: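 Tumor cells were implanted, animals were treated, and survival was followed. The result divides the treated measurement by the vehicle-control measurement.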

Where [1] appears, read: dose: 100.0 mg/kg/injection, schedule: Q04DX003 (ip), vehicle: saline with Tween-80.
The mark [2] stands for this setting: dose: 200.0 mg/kg/injection, schedule: Q04DX003 (ip), vehicle: saline with Tween-80.
Where [3] appears, read: dose: 400.0 mg/kg/injection, schedule: Q04DX003 (ip), vehicle: saline with Tween-80.
[4] abbreviates: dose: 100.0 mg/kg/injection, schedule: Q01DX001 (ip), vehicle: saline.
Setting [5] is: dose: 200.0 mg/kg/injection, schedule: Q01DX001 (ip), vehicle: saline.
[6] abbreviates: dose: 100.0 mg/kg/injection, schedule: Q01DX009 (ip), vehicle: Klucel (hydroxypropylcellulose) (HPC).
[7] abbreviates: dose: 200.0 mg/kg/injection, schedule: Q01DX009 (ip), vehicle: Klucel (hydroxypropylcellulose) (HPC).
[8] abbreviates: dose: 200.0 mg/kg/injection, schedule: Q04DX003 (ip), vehicle: saline.
[9] abbreviates: dose: 50.0 mg/kg/injection, schedule: Q01DX009 (ip), vehicle: Klucel (hydroxypropylcellulose) (HPC).
[10] abbreviates: dose: 100.0 mg/kg/injection, schedule: Q01DX009 (ip), vehicle: saline with Tween-80.

Inconclusive results and toxic doses are left out.

As to `C=Cc1ccc(C(=O)O)cc1`, the T/C reads like this: (dose: 100.0 mg/kg/injection, schedule: Q04DX002 (ip), vehicle: saline with Tween-80) 98 % of control; (dose: 200.0 mg/kg/injection, schedule: Q04DX002 (ip), vehicle: saline with Tween-80) 98 % of control; (dose: 400.0 mg/kg/injection, schedule: Q04DX002 (ip), vehicle: saline with Tween-80) 106 % of control.
Take `COc1cc(C(=O)NOCc2cccc(C(F)(F)F)c2)cc(OC)c1OC`: the T/C reads like this: under setting [1], 98 % of control; under setting [2], 98 % of control; under setting [3], 101 % of control.
Regarding `O=S(=O)(O)c1cccnc1`, the T/C is 102 % of control (dose: 19.63 mg/kg/injection, schedule: Q01DX Z (ip), vehicle: carboxymethylcellulose (CMC)); 93 % of control (dose: 39.25 mg/kg/injection, schedule: Q01DX Z (ip), vehicle: carboxymethylcellulose (CMC)); 92 % of control (dose: 78.5 mg/kg/injection, schedule: Q01DX Z (ip), vehicle: carboxymethylcellulose (CMC)); 102 % of control under setting [4]; 91 % of control (dose: 157.0 mg/kg/injection, schedule: Q01DX Z (ip), vehicle: carboxymethylcellulose (CMC)); 98 % of control under setting [5]. Moreover, the T/C (dose: 400.0 mg/kg/injection, schedule: Q01DX001 (ip), vehicle: saline) is 98 % of control.
For the molecule `CC(C)c1ccc(C(c2ccc(C(C)C)cc2)c2ccc(C(C)C)cc2)cc1`, the T/C was 104 % of control (dose: 100.0 mg/kg/injection, schedule: Q01DX001 (ip), vehicle: saline with Tween-80) and 91 % of control (dose: 200.0 mg/kg/injection, schedule: Q01DX001 (ip), vehicle: saline with Tween-80).
For the molecule `CC(C)(C)c1ccc(OC(=O)Nc2cc(C(F)(F)F)ccc2Cl)c(Br)c1`, the T/C is 90 % of control under setting [6]; 97 % of control under setting [7]; 97 % of control (dose: 400.0 mg/kg/injection, schedule: Q01DX009 (ip), vehicle: Klucel (hydroxypropylcellulose) (HPC)).
On to `CCCCc1ccc2nc(NC(=O)OC)[nH]c2c1`, for which the T/C (dose: 50.0 mg/kg/injection, schedule: Q01DX009 (oral), vehicle: saline with Tween-80) is 99 % of control; the T/C (dose: 100.0 mg/kg/injection, schedule: Q01DX009 (oral), vehicle: saline with Tween-80) was 109 % of control; the T/C (dose: 100.0 mg/kg/injection, schedule: Q04DX003 (oral), vehicle: saline with Tween-80) was 105 % of control; the T/C (dose: 200.0 mg/kg/injection, schedule: Q01DX009 (oral), vehicle: saline with Tween-80) was 108 % of control; the T/C under setting [8] is 172 % of control; the T/C (dose: 200.0 mg/kg/injection, schedule: Q04DX003 (oral), vehicle: saline with Tween-80) is 105 % of control. Also, the T/C was 160 % of control (dose: 300.0 mg/kg/injection, schedule: Q04DX003 (ip), vehicle: saline); 107 % of control under setting [3]; 114 % of control (dose: 400.0 mg/kg/injection, schedule: Q04DX003 (oral), vehicle: saline with Tween-80).
Take `CC(C)(CS(C)(=O)=O)NC(=O)NCCCl`: the T/C (dose: 100.0 mg/kg/injection, schedule: Q04DX002 (ip), vehicle: saline) is 103 % of control; the T/C (dose: 200.0 mg/kg/injection, schedule: Q04DX002 (ip), vehicle: saline) was 92 % of control; the T/C (dose: 400.0 mg/kg/injection, schedule: Q04DX002 (ip), vehicle: saline) is 103 % of control.
With `CCOC(=O)Nc1cccc(Cl)c1Cl`, the T/C is, setting by setting: under setting [1], 101 % of control; under setting [2], 98 % of control; under setting [3], 93 % of control.
Consider `Nc1[nH][nH]c(=O)c1N`, for which the T/C was 117 % of control under setting [9], 100 % of control under setting [6] and 100 % of control under setting [7].
For `COc1ccccc1N=C(N)N=C(N)N`, the T/C (dose: 75.0 mg/kg/injection, schedule: Q01DX001 (ip), vehicle: saline) is 96 % of control and the T/C (dose: 150.0 mg/kg/injection, schedule: Q01DX001 (ip), vehicle: saline) was 104 % of control.
On to `CC(C)=CCC(N)CC=C(C)C`, for which the T/C is, setting by setting: (dose: 12.5 mg/kg/injection, schedule: Q01DX009 (ip), vehicle: Klucel (hydroxypropylcellulose) (HPC)) 91 % of control; (dose: 25.0 mg/kg/injection, schedule: Q01DX009 (ip), vehicle: Klucel (hydroxypropylcellulose) (HPC)) 102 % of control; (dose: 25.0 mg/kg/injection, schedule: Q04DX002 (ip), vehicle: Klucel (hydroxypropylcellulose) (HPC)) 112 % of control; under setting [9], 106 % of control; (dose: 50.0 mg/kg/injection, schedule: Q04DX002 (ip), vehicle: Klucel (hydroxypropylcellulose) (HPC)) 105 % of control.
For `Cc1ccc(C(=O)OCc2ccccc2CN(C)C)cc1`, the T/C is, setting by setting: (dose: 100.0 mg/kg/injection, schedule: Q04DX002 (ip), vehicle: Klucel (hydroxypropylcellulose) (HPC)) 94 % of control; (dose: 200.0 mg/kg/injection, schedule: Q04DX002 (ip), vehicle: Klucel (hydroxypropylcellulose) (HPC)) 94 % of control; (dose: 400.0 mg/kg/injection, schedule: Q04DX002 (ip), vehicle: Klucel (hydroxypropylcellulose) (HPC)) 102 % of control.
As to `CCCCC(C)C(=O)Nc1cccc(O)c1` (stereo not drawn), the T/C runs as follows: under setting [10], 92 % of control; (dose: 200.0 mg/kg/injection, schedule: Q01DX009 (ip), vehicle: saline with Tween-80) 92 % of control; (dose: 400.0 mg/kg/injection, schedule: Q01DX009 (ip), vehicle: saline with Tween-80) 90 % of control.
As for `CCN(CC)CCOc1cc(C)ccc1C(C)C`, the T/C was 93 % of control (dose: 25.0 mg/kg/injection, schedule: Q01DX009 (ip), vehicle: saline with Tween-80); 102 % of control under setting [9]; 93 % of control (dose: 50.0 mg/kg/injection, schedule: Q01DX009 (ip), vehicle: saline with Tween-80); 100 % of control (dose: 50.0 mg/kg/injection, schedule: Q04DX003 (ip), vehicle: Klucel (hydroxypropylcellulose) (HPC)); 100 % of control (dose: 50.0 mg/kg/injection, schedule: Q04DX003 (ip), vehicle: saline with Tween-80); 98 % of control under setting [4]. Besides, the T/C by setting is: under setting [6], 103 % of control; under setting [10], 113 % of control; (dose: 100.0 mg/kg/injection, schedule: Q04DX003 (ip), vehicle: Klucel (hydroxypropylcellulose) (HPC)) 96 % of control; under setting [1], 95 % of control; under setting [5], 113 % of control.
As for `CCOC(=O)N1Cc2cc3cc4c(cc3nc2C1)OCO4`, the T/C by setting is: (dose: 100.0 mg/kg/injection, schedule: Q04DX003 (ip), vehicle: saline) 94 % of control; under setting [8], 94 % of control; (dose: 400.0 mg/kg/injection, schedule: Q04DX003 (ip), vehicle: saline) 96 % of control.
